SMILES | melting point [°C]
CC1=C(C(=O)OCCN(C)Cc2ccccc2)C(c2cccc3ncc(-c4ccc(C)cc4)cc23)C2=C(COC2=O)N1 (configuration not stated) | 173 to 175
CC(C)(C)c1cc(-c2nn(CCCCl)c3ncccc23)cc(C(C)(C)C)c1O | 107 to 109
c1cnc(NCc2ccc3c(c2)-c2[nH]nc(-c4ccsc4)c2C3)nc1 | 259 to 260
CC(C)(C)NCC(O)c1cc(Cl)c(N)c(C#N)c1 (configuration not stated) | 125 to 133
CN(C(=O)CBr)c1cccc(-c2ccnc3c(C(=O)c4ccccc4)cnn23)c1 | 175 to 177
CC(C)(CO)c1ccc(C=O)c(O)c1 | 80.4 to 81.9
O=NCNC1=Nc2ccc(Cl)cc2C(c2ccccc2F)=NC1 | 170 to 172
CCCCCCC(C)(C)c1ccc(C2CCCNC2)c(O)c1 (configuration not stated) | 138 to 140
CNC(=S)NS(=O)(=O)c1cc2c(cc1OC)OCC(NC(=O)c1cc(F)ccc1OC)C2 (configuration not stated) | 221 to 222
CCCn1nc2c(N)nc3ccccc3c2c1CCNC(=O)NCC | 206 to 207
CCCCc1c(C(=O)c2cccnc2)c2ccccc2n1C | 89 to 90
O=Cc1cc2n(c1)CCc1ccccc1C2=O | 135 to 136
Cn1nc(O)cc1C(F)F | 115 to 119
CS(=O)c1cccc(CNC(=O)c2nc3scc(COCc4ccc(C(=O)O)cc4)c3c(=O)[nH]2)c1 (configuration not stated) | 227 to 228
O=C(NCc1nccs1)c1cc(N2CCN(Cc3ccc(F)cc3)C2=O)n[nH]1 | 272 to 274
CCCn1nc2c(N)nc3ccccc3c2c1CC1(O)CCC1 | 191 to 193
COc1ccc2oc(C(=O)C34CC5CC(CC(C5)C3)C4)cc2c1 | 113 to 115
CCOC(=O)C(CO)C(C)c1cccnc1 (configuration not stated) | 128 to 131
COc1cc2[nH]cc(C3CN4CCC3CC4)c2cc1OC (configuration not stated) | 243 to 245
COc1ccc2c(c1)CCC1C3CCC(=O)C3(C)CCC21O (configuration not stated) | 69 to 74
NC(Cc1c[nH]c2c(Br)cccc12)C(=O)O (configuration not stated) | > 260
CN(Cc1cc(C(F)(F)F)cc(C(F)(F)F)c1)C(=O)c1c(-c2ccc(F)cc2)c2c(c(=O)n1C)CCCN2 | 226 to 228
Cc1ccn2c(C)c(CCc3ccc4nc(NC(=N)N)oc4c3)nc2c1 | 195 to 196
NS(=O)(=O)c1nn(-c2ccccn2)cc1Br | 145 to 146
O=[N+]([O-])c1ccc(-n2cnc(CO)c2)c(F)c1 | 157 to 159
CCCCCCC[C@@H](O)[C@@H](NCc1ccccc1)C(=O)O | 197 to 199

SMILES | melting point [°C]
C#CCc1[nH]c(C)c2c1CN=C(c1ccccc1F)c1cc(Cl)ccc1-2 | 179 to 180
C[C@H](NC(=O)OC(C)(C)C)C(=O)CCl | 64 to 66.5
Cc1cccc(-c2sc(N)nc2-c2ccc3ncoc3c2)n1 | 188 to 190
O=C(c1cc(I)c[nH]1)C(Cl)(Cl)Cl | 140
CS(=O)(=O)N(CCO)C1CCC(Nc2nccc(-n3nnc4ccccc43)n2)CC1 (configuration not stated) | 230 to 231
Cc1ccccc1C(=O)Nc1ccc(C(=O)N2CCc3cn(C)nc3-c3ccccc32)cc1 | 246 to 248
CN(C)c1cccc(N(C)C)c1NC(=O)N(Cc1ccc(O)cc1)CC1(c2ccccn2)CCCCC1 | 162 to 166
Cc1c2c(nn1-c1ccccc1)c(=O)[nH]c1ccccc12 | > 250
C=CCCC(Oc1ccc(C(=O)Cl)cc1)C1CCCCC1 (configuration not stated) | 22 to 25
O=C(Nc1ccc(-n2nc(C(F)(F)F)cc2C(F)(F)F)cc1)Nc1cccc([N+](=O)[O-])c1 | 203 to 204
CCN(CC)C(=O)C(C)Oc1cc(-c2ccccc2)nc2ccccc12 (configuration not stated) | 124
Oc1ccc(OCc2ccccc2)cc1OCc1ccccc1 | 82 to 83
N#Cc1cc(C(O)CN(Cc2ccccc2)Cc2ccccc2)cc2c1NCC2 (configuration not stated) | 139 to 140
Nc1ccccc1CCN1CCCCC1 | 36 to 38
O=C(COC(=O)CCCc1ccc(N(CCCl)CCCl)cc1)NCCCC(O)(P(=O)(O)O)P(=O)(O)O | > 260
O=C1C2CCN(CC2)C1Cc1ccc(-c2ccc(F)cc2)cc1 (configuration not stated) | 122 to 123
CCCc1nc2c(N)nc3cc(OCc4ccc(Cl)c(Cl)c4)ccc3c2n1CC(C)C | 183 to 184
CCOc1cc(O)c(C(=O)C=Cc2ccc(OC)cc2)c(OC)c1 | 122
Cc1c(-c2ccccc2)noc1-c1ccccc1C(=O)O | 159 to 161
CC1(C)COc2cc(Cl)cc(Cl)c2C(O)(c2ccccn2)C1 (configuration not stated) | 156
O=C(CCCCN1CCC(Cc2ccccc2)CC1)c1ccc2c(c1)C(=O)c1cc(C(=O)CCCCN3CCC(Cc4ccccc4)CC3)ccc1-2 | 124 to 126
C#CCN(C(C)C)S(=O)(=O)NC(=O)c1cc(-n2c(=O)cc(C(F)(F)F)n(C)c2=S)c(F)cc1Cl | 94 to 105
Cc1ncnn1-c1cc(F)ccc1CNC(=O)c1nc2n(c(=O)c1OCc1ccccc1)CCN2c1ccccc1 | 181
CCSC1(CCO)C(=O)Nc2ccc(F)cc21 (configuration not stated) | 125
Cc1noc(NS(=O)(=O)c2ccccc2Br)c1Br | 84 to 86

Continued, values first:

melting point [°C] | SMILES
97 to 99 | CC1=CC(=Cc2cc(C)cc(C3(C)CCCCC3)c2OCc2ccccc2)C(O)C(C2(C)CCCCC2)=C1 (configuration not stated)
92 to 93 | COC(=O)c1ccc(NCCCCCCCCCCCCCCCCBr)cc1
143 to 145 | Fc1cccc(Cl)c1COc1cccnc1NC(=S)Nc1ccccc1
84 | Cc1c(CCCCCCC(=O)O)cccc1C(=O)c1ccc(Cl)cc1
154 to 158 | C=CCNc1ccc(N(CC(O)CO)CC(O)CO)cc1[N+](=O)[O-] (configuration not stated)
153 to 155 | Cc1noc(NS(=O)(=O)c2cc(Br)c(Br)s2)c1Br
170 to 171 | CCN1CCN(c2ccc(NC(=O)Nc3ccc(Oc4cc(Cl)ncn4)cc3)cc2OC)CC1
244 to 246 | Nc1nc2cccnc2c2c1nc(CO)n2CC1(O)CCC1
105 | Cc1cc(Cl)ccc1Oc1cccc(-c2ncccn2)n1
295 to 297 | N#CC(C(=O)Nc1ccccc1Cl)C(=O)c1nn(-c2ccccc2)c2c1Cc1ccccc1-2 (configuration not stated)
115 to 118 | Ic1ccc(OC23CC4CC(CC(C4)C2)C3)cc1
38 to 40 | CC(C)(S)CNc1ccccc1N
203 to 205 | CCCn1nc2c(N)nc3ccccc3c2c1CC(C)(C)NC(=O)c1cccnc1
257 to 259 | Cc1c(O)noc1C(=O)O
116 to 118 | CCC(C)(C)c1cc(C(C)c2cc(C(C)(C)CC)cc(C(C)(C)CC)c2O)c(O)c(C(C)(C)CC)c1
> 250 | CNC1Oc2cc(Cl)cc(-c3ccccc3F)c2O1 (configuration not stated)
58 to 59 | CC(=O)CCN(Cc1ccccc1)Cc1ccccc1
196 to 200 | C=CCn1cc2cc3ncc(-c4ccc(OC)c(F)c4)nc3cc2n1
249 to 251 | CS(=O)(=O)Nc1cccc(S(=O)(=O)N2CCC(Nc3nc(Nc4cccc(C(F)(F)F)c4)nc(OCC(F)(F)F)n3)CC2)c1
239 to 240 | COc1cc2[nH]c(C(=O)O)cc2cc1F
147 to 148 | COC(=O)C(=O)c1ccc(OCCOc2cc3ccccc3c3ccccc23)cc1
275 | CCN1C(=O)C(=CC=C2C=C3N(C)c4ccccc4N3CC2)SC1=S
206 to 209 | Cc1oc2ccc(S(=O)(=O)C[N+](=O)[O-])cc2c(=O)c1C
175 to 178 | NNc1cc2c(nn1)CCN(C(=O)CC(c1ccccc1)c1ccccc1)C2
246 | CCSc1nsc(NC(=O)NC)c1C#N
143 to 145 | CNC(=O)CCN1c2ccccc2N2CCc3cccc(c32)C1C (configuration not stated)

melting point [°C] | SMILES
157 to 160 | CC1(C)[C@@H](CNS(C)(=O)=O)CC[C@@]1(C)NCC(=O)N1C[C@@H](F)C[C@H]1C#N
77 to 79 | O=S(=O)(c1ccccc1)C(F)(F)C(O)c1ccccc1 (configuration not stated)
126 to 130 | CC(C)(C)OC(=O)N1CCC(CNc2ccccn2)CC1
191 to 193 | Cc1nc2ccc(-c3ccc(OCC4(NC(=O)C5CC5)COC4)cc3)nn2c1-c1cnc(N)c(C(F)(F)F)c1
26 to 30 | CC(C)CCOC(=O)c1ccc2c(=O)c3ccccc3ccc2c1
> 300 | CCc1csc2[nH]c(=O)c(=O)[nH]c12
146 to 148 | Nc1cc(Cl)nc(C(=O)O)c1C=O
189 to 192 | CCCc1nc2c(N)nc3cc(OCc4ccc(F)cc4)ccc3c2s1
181 to 182 | Cc1c(-c2ccccc2)oc2c(C(=O)NCCCl)cccc2c1=O
106 to 111 | CCN1c2ccccc2N(C)C(=O)c2cccnc21
264 | Cc1cc(-c2ccc(C(F)(F)F)cc2)nc(-c2ccnc(-c3ccc(S(N)(=O)=O)s3)c2)n1
107 to 109 | CC1CC(C)CN(C(=O)c2ccccc2)C1 (configuration not stated)
128 to 130 | C=COCCONC(=O)c1cc(Br)c(F)c(F)c1Nc1ccc(I)cc1F
244 | O=C1COc2cc(Br)c(F)cc2N1
214 to 215 | COc1ccccc1-c1cc(C(=O)O)cc(-n2cnnn2)c1
92 to 94 | COC(=O)CCCC#Cc1cc(Cl)ccc1NS(=O)(=O)c1cc(C)cc(C)c1
146 to 155 | COC(=O)C1(CN2CCC(Cc3ccc(F)cc3)CC2)CC(c2ccc3[nH]c(=O)oc3c2)=NO1 (configuration not stated)
214 to 217 | CCCN(CCC)C1Cc2cccc(C(N)=O)c2NC1=O (configuration not stated)
187 to 188 | COC(=O)c1nc(-c2nccs2)cc(NC(C)=O)c1Cl
81 to 83 | CCOC(=O)c1ccccc1NCCOc1cccc2ccccc12
127 to 130 | Cc1cc(C(=O)N2Cc3ccc(C(=O)O)n3Cc3ccccc32)ccc1-c1ccccc1C(F)(F)F
134 to 136 | Clc1ccc(CCC(Cn2ccnc2)Sc2cccc(Cl)c2Cl)cc1 (configuration not stated)
82 to 84 | CNc1ccc(CCc2ccc(OC)c(OC)c2)cc1
218 | Cc1cc(CC(O)CN2C(=O)CCC2=O)cc(C(C)(C)C)c1O (configuration not stated)
142 to 143 | Cc1cc(C)n(-c2ccc(NN)nn2)n1
